# Source: ChEMBL document CHEMBL1201862, “PubChem BioAssay data set” (2004)
#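 Assay format: 96-well plates, 48-hour exposure. GI50 is the concentration that inhibits growth by half.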 Active and inactive are the calls of the source. No stated cut-off is given here; in the data, active = GI50 up to about 1.1 µM and inactive = higher.
# Assays:
# Assay in all cases: growth of human tumour cells (NCI), 48 h
# [1] = tested on: SK-MEL-2
# [2] = tested on: HOP-62
# [3] = tested on: 786-0
# [4] = tested on: TK-10
# [5] = tested on: UACC-62
# [6] = tested on: SF-539
# [7] = tested on: RXF 393
# [8] = tested on: SF-295
# [9] = tested on: KM12
# [10] = tested on: Hs-578T
# [11] = tested on: SNB-75
# [12] = tested on: OVCAR-4
# [13] = tested on: U-251
# [14] = tested on: M14
# [15] = tested on: UACC-257
# [16] = tested on: HCT-116
# [17] = tested on: MDA-MB-435
# [18] = tested on: Malme-3M
# [19] = tested on: HOP-92
# [20] = tested on: ACHN
# [21] = tested on: SR
# [22] = tested on: SK-MEL-5
# [23] = tested on: HT-29
# [24] = tested on: SK-OV-3
# [25] = tested on: UO-31
# [26] = tested on: IGROV-1
# [27] = tested on: K562
# [28] = tested on: EKVX
# [29] = tested on: OVCAR-3
# [30] = tested on: CCRF-CEM
# [31] = tested on: MCF7
# [32] = tested on: PC-3
# [33] = tested on: MDA-MB-231
# [34] = tested on: COLO 205
# [35] = tested on: OVCAR-5
# [36] = tested on: NCI-H226
# [37] = tested on: HCC 2998
# [38] = tested on: SN12C
# [39] = tested on: NCI-H522
# [40] = tested on: HL-60
# [41] = tested on: HCT-15
# [42] = tested on: NCI-H23
# [43] = tested on: RPMI-8226
# [44] = tested on: A549
# [45] = tested on: T47D
# [46] = tested on: MDA-N
# [47] = tested on: A498
# [48] = tested on: OVCAR-8
# [49] = tested on: MOLT-4
# [50] = tested on: NCI/ADR-RES
# [51] = tested on: LOX IMVI
# [52] = tested on: BT-549
# [53] = tested on: DU-145
# [54] = tested on: CAKI-1
# [55] = tested on: SNB-19
# [56] = tested on: NCI-H460
# [57] = tested on: SK-MEL-28
# [58] = tested on: SW-620
smiles,measurement,setting,value
COC(=O)CCc1ccc2c(c1)CC1(C2)Cc2ccc(CCC(=O)OC)cc2C1,GI50,[1],> 100 µM (inactive)
same,GI50,[2],62.7 µM (inactive)
same,GI50,[3],> 100 µM (inactive)
same,GI50,[4],> 100 µM (inactive)
same,GI50,[5],> 100 µM (inactive)
same,GI50,[6],> 100 µM (inactive)
same,GI50,[7],> 100 µM (inactive)
same,GI50,[8],78 µM (inactive)
same,GI50,[9],> 100 µM (inactive)
same,GI50,[10],> 100 µM (inactive)
same,GI50,[11],< 0.01 µM (active)
same,GI50,[12],53.3 µM (inactive)
same,GI50,[13],40.1 µM (inactive)
same,GI50,[14],> 100 µM (inactive)
same,GI50,[15],> 100 µM (inactive)
same,GI50,[16],> 100 µM (inactive)
same,GI50,[17],> 100 µM (inactive)
same,GI50,[18],63.1 µM (inactive)
same,GI50,[19],35.4 µM (inactive)
same,GI50,[20],> 100 µM (inactive)
same,GI50,[21],29.4 µM (inactive)
same,GI50,[22],24 µM (inactive)
same,GI50,[23],62.7 µM (inactive)
same,GI50,[24],> 100 µM (inactive)
same,GI50,[25],> 100 µM (inactive)
same,GI50,[26],75.2 µM (inactive)
same,GI50,[27],> 100 µM (inactive)
same,GI50,[28],> 100 µM (inactive)
same,GI50,[29],77.4 µM (inactive)
same,GI50,[30],15.6 µM (inactive)
same,GI50,[31],48.6 µM (inactive)
same,GI50,[32],> 100 µM (inactive)
same,GI50,[33],89.9 µM (inactive)
same,GI50,[34],57.5 µM (inactive)
same,GI50,[35],> 100 µM (inactive)
same,GI50,[36],38.8 µM (inactive)
same,GI50,[37],> 100 µM (inactive)
same,GI50,[38],68.5 µM (inactive)
same,GI50,[39],34.5 µM (inactive)
same,GI50,[40],17.1 µM (inactive)
same,GI50,[41],> 100 µM
same,GI50,[42],44.7 µM (inactive)
same,GI50,[43],28.4 µM (inactive)
same,GI50,[44],> 100 µM (inactive)
same,GI50,[45],58.2 µM (inactive)
same,GI50,[46],> 100 µM (inactive)
same,GI50,[47],> 100 µM (inactive)
same,GI50,[48],60.1 µM (inactive)
same,GI50,[49],29.6 µM (inactive)
same,GI50,[50],> 100 µM (inactive)
same,GI50,[51],26.6 µM (inactive)
COC(=O)C1=CC(=O)OC1(OO)c1ccccc1 (stereo not given),GI50,[1],> 100 µM (inactive)
same,GI50,[3],35.6 µM (inactive)
same,GI50,[4],> 100 µM (inactive)
same,GI50,[5],> 100 µM (inactive)
same,GI50,[52],> 100 µM (inactive)
same,GI50,[6],> 100 µM (inactive)
same,GI50,[7],> 100 µM (inactive)
same,GI50,[53],> 100 µM (inactive)
same,GI50,[8],> 100 µM (inactive)
same,GI50,[9],> 100 µM (inactive)
same,GI50,[54],38.8 µM (inactive)
same,GI50,[11],92.3 µM (inactive)
same,GI50,[12],> 100 µM (inactive)
same,GI50,[13],> 100 µM (inactive)
same,GI50,[14],> 100 µM (inactive)
same,GI50,[15],> 100 µM (inactive)
same,GI50,[16],88.3 µM (inactive)
same,GI50,[17],> 100 µM (inactive)
same,GI50,[55],> 100 µM (inactive)
same,GI50,[18],28.3 µM (inactive)
same,GI50,[19],30.8 µM (inactive)
same,GI50,[20],> 100 µM (inactive)
same,GI50,[21],42.1 µM (inactive)
same,GI50,[22],> 100 µM (inactive)
same,GI50,[23],56.4 µM (inactive)
same,GI50,[56],> 100 µM (inactive)
same,GI50,[24],> 100 µM (inactive)
same,GI50,[25],> 100 µM (inactive)
same,GI50,[26],> 100 µM (inactive)
same,GI50,[27],33.5 µM (inactive)
same,GI50,[28],> 100 µM (inactive)
same,GI50,[29],> 100 µM (inactive)
same,GI50,[30],18.7 µM (inactive)
same,GI50,[31],> 100 µM (inactive)
same,GI50,[32],> 100 µM (inactive)
same,GI50,[33],> 100 µM (inactive)
same,GI50,[34],> 100 µM (inactive)
same,GI50,[35],> 100 µM (inactive)
same,GI50,[36],> 100 µM (inactive)
same,GI50,[37],> 100 µM (inactive)
same,GI50,[38],> 100 µM (inactive)
same,GI50,[39],30.3 µM (inactive)
same,GI50,[40],3.18 µM (inactive)
same,GI50,[41],54 µM
same,GI50,[42],> 100 µM (inactive)
same,GI50,[44],> 100 µM (inactive)
same,GI50,[57],> 100 µM (inactive)
same,GI50,[45],> 100 µM (inactive)
same,GI50,[58],68.1 µM (inactive)
same,GI50,[46],> 100 µM (inactive)
same,GI50,[48],> 100 µM (inactive)
same,GI50,[49],62.2 µM (inactive)
same,GI50,[50],> 100 µM (inactive)
same,GI50,[51],94.8 µM (inactive)
